Tested on: 253994-281-T-J1-PDC KRAS-mutant spheroids with HUVEC/MSC, viability
Assay: Anticancer human tumor 253994-281-T-J1-PDC patient-derived colorectal carcinoma cell line growth inhibition [KRAS2]
Conditions: for viability, T/C: stronger effect = lower value
Method in brief: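 KRAS-mutant tumor cells were grown as spheroids with HUVEC endothelial cells and human MSCs as stroma. Targeted agents were tested alone and with KRAS pathway inhibitors. Doses started at or near clinical Cmax, or 10 microM, descending half-log.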

[1] = curve of first compound, second compound 0.1 µM
[2] = curve of first compound, second compound 0.316 µM
[3] = curve of first compound, second compound 1 µM
[4] = curve of first compound, second compound 3.16 µM
[5] = curve of first compound, second compound 10 µM
[6] = second compound 0.1 µM, first compound 0.0316 µM
[7] = second compound 0.1 µM, first compound 0.1 µM
[8] = second compound 0.1 µM, first compound 0.316 µM
[9] = second compound 0.1 µM, first compound 1 µM
[10] = second compound 0.1 µM, first compound 3.16 µM
[11] = second compound 0.1 µM, first compound 10 µM
[12] = second compound 0.316 µM, first compound 0.0316 µM
[13] = second compound 0.316 µM, first compound 0.1 µM
[14] = second compound 0.316 µM, first compound 0.316 µM
[15] = second compound 0.316 µM, first compound 1 µM
[16] = second compound 0.316 µM, first compound 3.16 µM
[17] = second compound 0.316 µM, first compound 10 µM
[18] = second compound 1 µM, first compound 0.0316 µM
[19] = second compound 1 µM, first compound 0.1 µM
[20] = second compound 1 µM, first compound 0.316 µM
[21] = second compound 1 µM, first compound 1 µM
[22] = second compound 1 µM, first compound 3.16 µM
[23] = second compound 1 µM, first compound 10 µM
[24] = second compound 3.16 µM, first compound 0.0316 µM
[25] = second compound 3.16 µM, first compound 0.1 µM
[26] = second compound 3.16 µM, first compound 0.316 µM
[27] = second compound 3.16 µM, first compound 1 µM
[28] = second compound 3.16 µM, first compound 3.16 µM
[29] = second compound 3.16 µM, first compound 10 µM
[30] = second compound 10 µM, first compound 0.0316 µM
[31] = second compound 10 µM, first compound 0.1 µM
[32] = second compound 10 µM, first compound 0.316 µM
[33] = second compound 10 µM, first compound 1 µM
[34] = second compound 10 µM, first compound 3.16 µM
[35] = second compound 10 µM, first compound 10 µM
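Further: spheroids exposed to agents for seven days before readout.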
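Wherever viability, T/C is given: percent of DMSO vehicle control viability.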

COC(=O)c1ccc2c(C(=Nc3ccc(N(C)C(=O)CN4CCN(C)CC4)cc3)c3ccccc3)c(O)[nH]c2c1 + CNCc1ccccc1-c1csc(C(C)Nc2nc(C)nc3cc(OC)c(OC)cc23)c1
IC50 [1]: 6.67 µM
IC50 [2]: 4.12 µM
IC50 [3]: 4.52 µM
IC50 [4]: < 0.0316 µM
IC50 [5]: < 0.0316 µM
viability, T/C [6]: 90.3%
viability, T/C [7]: 97.4%
viability, T/C [8]: 73.2%
viability, T/C [9]: 89.3%
viability, T/C [10]: 77%
viability, T/C [11]: 35.2%
viability, T/C [12]: 99.1%
viability, T/C [13]: 74.1%
viability, T/C [14]: 80.8%
viability, T/C [15]: 83.8%
viability, T/C [16]: 61.7%
viability, T/C [17]: 10.7%
viability, T/C [18]: 82.6%
viability, T/C [19]: 75%
viability, T/C [20]: 77.3%
viability, T/C [21]: 70.8%
viability, T/C [22]: 72.3%
viability, T/C [23]: 0.33%
viability, T/C [24]: 20.7%
viability, T/C [25]: 23.6%
viability, T/C [26]: 3.7%
viability, T/C [27]: 1.12%
viability, T/C [28]: 0.36%
viability, T/C [29]: 0.17%
viability, T/C [30]: 0.14%
viability, T/C [31]: 0.16%
viability, T/C [32]: 0.15%
viability, T/C [33]: 0.22%
viability, T/C [34]: 0.12%
viability, T/C [35]: 0.17%

CC(C)NCC(C(=O)N1CCN(c2ncnc3c2C(C)CC3O)CC1)c1ccc(Cl)cc1 (centres undefined) + CNCc1ccccc1-c1csc(C(C)Nc2nc(C)nc3cc(OC)c(OC)cc23)c1
IC50 [1]: > 10 µM
IC50 [2]: > 10 µM
IC50 [3]: > 10 µM
IC50 [4]: < 0.0316 µM
IC50 [5]: < 0.0316 µM
viability, T/C [6]: 110%
viability, T/C [7]: 109%
viability, T/C [8]: 99.6%
viability, T/C [9]: 111%
viability, T/C [10]: 94.7%
viability, T/C [11]: 105%
viability, T/C [12]: 110%
viability, T/C [13]: 96%
viability, T/C [14]: 98.2%
viability, T/C [15]: 113%
viability, T/C [16]: 107%
viability, T/C [17]: 101%
viability, T/C [18]: 121%
viability, T/C [19]: 108%
viability, T/C [20]: 88.1%
viability, T/C [21]: 103%
viability, T/C [22]: 95.2%
viability, T/C [23]: 99.4%
viability, T/C [24]: 38.1%
viability, T/C [25]: 29.8%
viability, T/C [26]: 24%
viability, T/C [27]: 34.8%
viability, T/C [28]: 24.1%
viability, T/C [29]: 40.1%
viability, T/C [30]: 0.17%
viability, T/C [31]: 0.14%
viability, T/C [32]: 0.14%
viability, T/C [33]: 0.16%
viability, T/C [34]: 0.13%
viability, T/C [35]: 0.27%

CC(=O)Nc1cccc(-n2c(=O)n(C3CC3)c(=O)c3c(Nc4ccc(I)cc4F)n(C)c(=O)c(C)c32)c1 + COc1cc2nc(C)nc(NC(C)c3cc(N)cc(C(F)(F)F)c3)c2cc1OC1CCOC1
IC50 [1]: 0.000473 µM
IC50 [2]: 0.000318 µM
IC50 [3]: 0.000331 µM
IC50 [4]: 0.000154 µM
IC50 [5]: 0.000173 µM
viability, T/C (second compound 0.1 µM, first compound 0.0001 µM): 82.8%
viability, T/C (second compound 0.1 µM, first compound 0.000316 µM): 60.4%
viability, T/C (second compound 0.1 µM, first compound 0.001 µM): 30.9%
viability, T/C (second compound 0.1 µM, first compound 0.00316 µM): 14.4%
viability, T/C (second compound 0.1 µM, first compound 0.01 µM): 10.5%
viability, T/C [6]: 5.47%
viability, T/C (second compound 0.316 µM, first compound 0.0001 µM): 68%
viability, T/C (second compound 0.316 µM, first compound 0.000316 µM): 50.7%
viability, T/C (second compound 0.316 µM, first compound 0.001 µM): 27.9%
viability, T/C (second compound 0.316 µM, first compound 0.00316 µM): 14.8%
viability, T/C (second compound 0.316 µM, first compound 0.01 µM): 10.7%
viability, T/C [12]: 5.1%
viability, T/C (second compound 1 µM, first compound 0.0001 µM): 59.9%
viability, T/C (second compound 1 µM, first compound 0.000316 µM): 51.7%
viability, T/C (second compound 1 µM, first compound 0.001 µM): 23.5%
viability, T/C (second compound 1 µM, first compound 0.00316 µM): 11.6%
viability, T/C (second compound 1 µM, first compound 0.01 µM): 9.28%
viability, T/C [18]: 4.8%
viability, T/C (second compound 3.16 µM, first compound 0.0001 µM): 59.7%
viability, T/C (second compound 3.16 µM, first compound 0.000316 µM): 34%
viability, T/C (second compound 3.16 µM, first compound 0.001 µM): 20.2%
viability, T/C (second compound 3.16 µM, first compound 0.00316 µM): 10.6%
viability, T/C (second compound 3.16 µM, first compound 0.01 µM): 8.21%
viability, T/C [24]: 4.13%
viability, T/C (second compound 10 µM, first compound 0.0001 µM): 74.6%
viability, T/C (second compound 10 µM, first compound 0.000316 µM): 21.5%
viability, T/C (second compound 10 µM, first compound 0.001 µM): 13.6%
viability, T/C (second compound 10 µM, first compound 0.00316 µM): 8.98%
viability, T/C (second compound 10 µM, first compound 0.01 µM): 5.81%
viability, T/C [30]: 2.33%

Cn1nccc1Nc1nccc(-c2cc3c(s2)C(C)(C)N(CCN2CCOCC2)C3=O)n1 + CNCc1ccccc1-c1csc(C(C)Nc2nc(C)nc3cc(OC)c(OC)cc23)c1
IC50 [1]: 2.14 µM
IC50 [2]: 1.52 µM
IC50 [3]: 0.863 µM
IC50 [4]: < 0.0316 µM
IC50 [5]: < 0.0316 µM
viability, T/C [6]: 97.5%
viability, T/C [7]: 102%
viability, T/C [8]: 87.6%
viability, T/C [9]: 74.6%
viability, T/C [10]: 37.1%
viability, T/C [11]: 23.8%
viability, T/C [12]: 106%
viability, T/C [13]: 89.2%
viability, T/C [14]: 84%
viability, T/C [15]: 60.7%
viability, T/C [16]: 31.8%
viability, T/C [17]: 19.4%
viability, T/C [18]: 87.7%
viability, T/C [19]: 73.2%
viability, T/C [20]: 67.9%
viability, T/C [21]: 49.8%
viability, T/C [22]: 24%
viability, T/C [23]: 10%
viability, T/C [24]: 44.4%
viability, T/C [25]: 46.3%
viability, T/C [26]: 29.3%
viability, T/C [27]: 0.46%
viability, T/C [28]: 0.39%
viability, T/C [29]: 0.26%
viability, T/C [30]: 0.25%
viability, T/C [31]: 0.16%
viability, T/C [32]: 0.15%
viability, T/C [33]: 0.14%
viability, T/C [34]: 0.39%
viability, T/C [35]: 0.2%

C=CC(=O)N1CCN(c2nc(=O)n(-c3c(C)ccnc3C(C)C)c3nc(-c4c(O)cccc4F)c(F)cc23)C(C)C1 (centres undefined)
viability, T/C (compound 0.316 µM): 93.1% [middle of 17 runs]
IC50 (compound alone, run of 08/19/2021): > 10 µM
IC50 (compound alone, run of 08/26/2021): > 10 µM
IC50 (compound alone, run of 09/02/2021): > 10 µM

COC(=O)c1ccc2c(C(=Nc3ccc(N(C)C(=O)CN4CCN(C)CC4)cc3)c3ccccc3)c(O)[nH]c2c1 + COc1cc2nc(C)nc(NC(C)c3cc(N)cc(C(F)(F)F)c3)c2cc1OC1CCOC1
IC50 [1]: 5.28 µM
IC50 [2]: 5.43 µM
IC50 [3]: 4.65 µM
IC50 [4]: 2.29 µM
IC50 [5]: 0.721 µM
viability, T/C [6]: 100%
viability, T/C [7]: 103%
viability, T/C [8]: 103%
viability, T/C [9]: 85.1%
viability, T/C [10]: 85.6%
viability, T/C [11]: 9.83%
viability, T/C [12]: 93.6%
viability, T/C [13]: 75%
viability, T/C [14]: 79.2%
viability, T/C [15]: 91.6%
viability, T/C [16]: 74.2%
viability, T/C [17]: 22.8%
viability, T/C [18]: 71.9%
viability, T/C [19]: 71.6%
viability, T/C [20]: 73.1%
viability, T/C [21]: 85.1%
viability, T/C [22]: 71.3%
viability, T/C [23]: 7.12%
viability, T/C [24]: 73.4%
viability, T/C [25]: 75.4%
viability, T/C [26]: 84.4%
viability, T/C [27]: 74.5%
viability, T/C [28]: 40.2%
viability, T/C [29]: 0.2%
viability, T/C [30]: 68.6%
viability, T/C [31]: 79.1%
viability, T/C [32]: 48.6%
viability, T/C [33]: 54.4%
viability, T/C [34]: 12.4%
viability, T/C [35]: 0.21%

Source: PubChem BioAssay AID1963874 (Molecular Pharmacology Branch, DTP, NCI, 2024)
